Experimental data from patent publication US20100297102A1, “SEROTONIN 5-HT3A RECEPTORS IN TREATMENT OF NEUROLOGICAL AND PSYCHIATRIC DISORDERS” (priority 2006, published 2010).
Blank lines part the entries; values can stand above or below the compound they belong to.

What was measured:
5-HT3 receptor = molecular target: T1, 5-HT3 receptor (Mus musculus, UniProt P23979); assay: Whole-cell patch-clamp of 5-HT3 receptor-mediated inward current in EGFP-positive neurons/neuroblasts in acute slices; format: cell-based, mice
T1 sequence (P23979 24-489): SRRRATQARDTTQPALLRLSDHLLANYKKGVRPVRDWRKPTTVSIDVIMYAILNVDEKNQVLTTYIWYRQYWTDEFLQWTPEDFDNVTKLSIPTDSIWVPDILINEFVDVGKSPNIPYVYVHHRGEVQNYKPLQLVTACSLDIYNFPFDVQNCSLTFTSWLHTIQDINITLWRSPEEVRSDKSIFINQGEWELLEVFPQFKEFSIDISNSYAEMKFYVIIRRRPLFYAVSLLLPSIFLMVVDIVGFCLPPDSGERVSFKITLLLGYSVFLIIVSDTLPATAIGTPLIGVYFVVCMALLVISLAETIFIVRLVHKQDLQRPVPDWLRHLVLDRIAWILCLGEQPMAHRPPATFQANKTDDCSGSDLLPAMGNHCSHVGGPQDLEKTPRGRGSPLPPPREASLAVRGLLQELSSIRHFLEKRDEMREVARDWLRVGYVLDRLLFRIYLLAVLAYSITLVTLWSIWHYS
Description: We thus performed patch-clamp recordings from cells with the typical migratory morphology in the DMS using acute sagittal slices from transgenic animals (FIG. 3, A).
Slice preparation and electrophysiology. 250-350 μm-thick parasagittal brain sections (for recordings in hippocampus, cortex, RMS and DMS) or coronal brain sections (for recordings in amygdala) were made from transgenic mice (P8-P42) using a vibratome (Leica VT1000S). Whole-cell voltage and current clamp recordings were made from visually identified, EGFPpositive neurons using and EPC9 amplifier (HEKA) and an upright microscope (Zeiss Axioskop FS2) equipped with IR-DIC and standard epifluorescence. […] Slices were continuously superfused with ACSF containing (in mM): 120 NaCl, 3.5 KCl, 2.5 CaCl2, 1.3 MgSO4, 1.25 NaH2PO4, 25 NaHCO3, 25 glucose. The presence of functional 5-HT3 receptors was assessed by application of 100 μM 5-HT (dissolved in ACSF) via pressure 12 ejection from a second pipette connected to a picospritzer. Cells were voltage clamped at −60 mV. Signals were filtered at 1-5 kHz, sampled at 2-10 kHz and off-line analysis was performed using Igor Pro (Wavemetrics).

[1] = after intraperitoneal injection; cited from earlier work
transgenic mice = assay: Toxicity of BrdU injections in birthdating experiments; format: in vivo
Description: Birthdating analysis. Pregnant mice and P7 transgenic mice were injected intraperitoneally with 50 mg/kg or 300 mg/kg BrdU (Sigma) (body weight), sacrificed after 1 or 4 weeks and processed for immunostaining.
Five BrdU injections (50 mg/kg, intraperitoneally) were administered every 2 hrs apart for 8 hours at E12.5, E14.5, E16.5 and P7 (FIG. 10). […] To avoid a cumulative effect, 5 pulses of BrdU (one pulse per day) were administered from P7 to P12. At P7 two treatments, one with 50 mg/kg and with 300 mg/kg of BrdU were carried.

EGFP-positive cells = assay: Organotypic slice culture: migration/distribution of EGFP-positive neuroblasts; format: cell-based, mice
Description: The presence of functional 5-HT3 receptors on neuroblasts raised the question whether the receptor activation plays a role in the migration and maturation of GABAergic inhibitory neurons in postnatal life. To this end, studies were carried out in organotypic slices obtained from P3 transgenic mice (n=8) and cultured in vitro for 6 days. There were clear alterations in the cortical distribution of EGFP-positive cells in slices treated with the specific 5-HT3 antagonist tropisetron (1 μM) compared to corresponding untreated slices (FIGS. 4, A and B). The decrease in the number of EGFP-expressing cells in tropisetron-treated animals in cortex and hippocampus indicates a deficit in the migration of these cells, rather than cell death since the neuroblasts are still clearly visible in the stream. […] By P3 when slices were made, many EGFP-expressing cells have already reached their destination.
Organotypic slice culture experiments. Organotypic slice cultures were performed as previously described. After 6 days in culture, slices, control or treated with tropisetron (Sigma), were fixed for 1 hr in 4% PFA and processed for immunostaining using polyclonal rabbit anti-EGFP antibody. Cell counts were performed in pairs of matching tropisetron-treated and untreated slices. EGFP-positive cells were counted in deep, in superficial cortical layers and in stratum radiatum of the hippocampus within three standardized rectangular regions of 200×150 μm2 for each region. Data from control and treated slices were analyzed by Student's t test.

[2] = tropisetron 1 μM, slices from P3 transgenic mice, 6 days in culture, n=8

5-HT3 receptor-mediated inward current, average amplitude (5-HT3 receptor; application of 5-HT (100 μM), mature/spiking neuroblasts in the DMS, 18 out of 22 responded): −46.0±10.5 pA
Compound: NCCc1c[nH]c2ccc(O)cc12 [5-HT, 5-hydroxytryptamine]

Compound: O=c1[nH]c(=O)n([C@H]2C[C@H](O)[C@@H](CO)O2)cc1Br [BrdU]
persistence in the circulation [1]: less than a few hours | toxic effects (transgenic mice; P16 mice after BrdU treatment, 50 mg/kg and 300 mg/kg i.p., dose-dependent): Hair loss and motor deficits | EGFP-positive cell number in the granule cell layer and periglomerular cell layer of the OB (transgenic mice; at P16, injected at P7 with 50 mg/kg BrdU, compared to untreated transgenic control mice (FIG. 10F)): Reduction | EGFP-positive cell number in the granule cell layer and periglomerular cell layer of the OB (transgenic mice; at P16, injected at P7 with 300 mg/kg BrdU, compared to untreated transgenic control mice (FIG. 10G)): Reduction | number of EGFP-positive cells in the cortex, the RMS and OB (transgenic mice; at P16 after postnatal treatment with BrdU): reduction

Compound: CN1[C@@H]2CC[C@H]1C[C@@H](OC(=O)c1cc(Cl)cc(Cl)c1)C2 [MDL72222]
block of 5-HT3 receptor-mediated inward current evoked by 100 μM 5-HT (5-HT3 receptor; whole-cell voltage clamped EGFP-positive neurons, n=5 (FIG. 1B)): can be blocked

Compound: CN1[C@@H]2CC[C@H]1C[C@@H](OC(=O)c1c[nH]c3ccccc13)C2 [tropisetron]
cell density in the DMS (EGFP-positive cells; slices from P3 transgenic mice treated with tropisetron, compared to control (FIG. 4)): increase in cell density in the DMS | number of EGFP positive cells in hippocampus, of control levels (EGFP-positive cells; tropisetron 100 nM, n=3): 74.7% | number of EGFP positive cells in superficial cortical layers, of control levels (EGFP-positive cells; tropisetron 100 nM, n=3): 81.1% | number of EGFP positive cells in the deep cortex, of control levels (EGFP-positive cells; tropisetron 100 nM, n=3): 70.8% | number of EGFP positive cells in deep cortical layers, of the control level (EGFP-positive cells; [2]): 68.4% | number of EGFP positive cells in stratum radiatum of the hippocampus, of the control level (EGFP-positive cells; [2]): 72.6% | number of EGFP positive cells in superficial layers, of the control level (EGFP-positive cells; [2]): 76.4%
